From US5770623A, “Argine antagonists for inhibition of systemic hypotension associated with nitric oxide production or endothelial derived relaxing factor” (Board of Regents, The University of Texas System, priority 1995, dated 1998)
Entries after “also recorded” stand apart in the source; their conditions may differ. Like-named read-outs stand apart in the source and are kept apart here.

Columns and labels:
[1] = system: dog coronary (CA) and femoral artery (FA); assay: ACh-induced relaxation of dog coronary and femoral artery; details: NMMA 100 μM
Method: (§1) Guinea pig pulmonary artery (GP PA), rat and rabbit aorta (Ao), and dog coronary (CA) and femoral artery (FA) were precontracted with NE (1 μM) and relaxed with a single concentration of ACh. Concentration of ACh: GP PA 1 μM, rat Ao […], rabbit Ao 0.3, dog CA […] and […] 0.1 μM. […] The concentrations of L-citrulline (L-cit), D-arginine (D-arg) and L-arginine (L-arg) were all 0.5 mM. Bars are mean values±SEM (n=4-6).

[2] = system: isolated guinea pig heart; assay: Histamine-induced nitrite release and coronary flow in isolated perfused guinea pig heart; details: for effect on coronary flow (vasodilation): histamine-elicited; for effect on EDRF/NO (nitrite) release: histamine-induced, FIG. 13
Method: Histamine was administered as a rapid bolus injection into the aorta and net nitrite release during the subsequent 2.5 minutes was determined.

[3] = system: mongrel dogs with TNF-induced hypotension; assay: TNF-induced hypotension in anesthetized dogs; assay type: in vivo, dog; details: for effect of L-arginine on NMMA pressor effect (words): TNF- and NMMA-treated dogs
Method: Recombinant human TNF specific activity 2×10^7 units/mg, was from the Niposn Chemical Corporation, Tokyo, Japan. TNF was administered at a dose of 10 mcg/kg in a volume of 10 ml of phosphate buffered saline containing 2 mgs/ml of dog albumin. […] Arginine was obtained from Sigma Chemical Company, St. Louis, Mo.
Four conditioned mongrel dogs, 2 males and 2 females, weighing 28 to 30 kgs, were studied. Care of the animals were in accordance with the recommendation of the American Association for Accreditation of Laboratory Animals [DHEW(DHHS) publication no. (NIH) 78-23, revised, 1978]. On the day of the experiment, the dogs were fasted overnight. They were anesthetized with phenobarbital (10 mg/kg). They were then intubated orally with a #10 fr. endotracheal tube and ventilated with a Harvard pump ventilator at a rate of 12 breaths per minute and a tidal volume of 15 ml/kg. An arterial line was percutaneously placed in the femoral artery on the day of the experiment.
Mean (electronic) and phasic systemic arterial pressures (SAP) were continuously recorded on a Hewlett-Packard recording system (model 7758B) using strain gauge manometers (Hewlett-Packard model 1290A) which were connected to the arterial line. Heart rate (HR) was determined from an EKG tracing and continuously recorded on the Hewlett-Packard recording system. Oxyhemoglobin saturation (SaO2) was obtained using a pulse oximeter (BIOX 111, Boulder, Colo.). continuous time-series records of SAP, HR, and SaO2 were obtained using a Lab Master analog-to-digital convertor (16 channel, 12 bit, 30 kHz; Scientific Solutions, Inc.) sampling at 55 Hz and storing the 6 sec averages on a magnetic disk.

endotoxin-treated dogs = assay type: in vivo, dog; design: blood pressure after L-arginine / change in SAP after L-arginine: dose or concentration left out as unconfirmed; details: for Cardiac Output / Heart Rate / Systemic Arterial Pressure / Systemic Vascular Resistance: Table 1, Study 1: Endotoxin-treated (n = 4)
Method: (§2) Animals: Studies were carried out on 12 conditioned mongrel dogs (9 males and 3 females) weighing 22-32 kg (avg=25.3 kg). Animal care was in accordance with the recommendations of the American Association for Accreditation of Laboratory Animal Care, and met all standards prescribed by the Guide for the Care and Use of Laboratory Animals (Guide for the Care and Use of Laboratory Animals (1978) Dept. of Health, Education and Welfare, Washington, D.C. (Publ. No. 78-23). Animal protocols were approved by The University of Texas Animal Welfare Committee. The dogs were fasted overnight prior to the day of experimentation. They were anesthetized with sodium pentobarbital (25 mg/kg I.v.). Dogs were then endotracheally intubated and ventilated with a piston-driven respirator (Harvard instruments) using room air at a tidal volume of 20 ml/kg and at a rate of 10 to 12 breaths per minute, adjusted to achieve a normal arterial pH and pCO2 (Instrumentation Laboratories 1L13012 pH/Blood Gas Analyzer). Catheters were placed percutaneously into the femoral and pulmonary arteries; In the latter, a flow-directed thermal-dilation catheter was used (Abbott Critical Care Systems).
(§3) Physiologic measurements: Mean SAP and heart rate were continuously monitored (Parametron 7048 Monitoring System, Roche) and stored on a magnetic disk using an analog-to-digital converter (Scientific Solutions, Inc.). Cardiac output (CO) was determined as the mean of six measurements by thermal-dilution. Systemic vascular resistance was calculated as (SAP X80)/CO and expressed as […].
(§4) Protocol: After the blood pressure and heart rate stabilized, endotoxin (40 ug/kg, in 10 ml of phosphate-buffered saline (PBS), pH 7.4) was infused i.v. over 2 minutes. This dose of endotoxin typically induces severe and often lethal cardiovascular collapse in the dog. Blood pressure was monitored, and when either SAP fell below 60 mmHg or a stable nadir in systemic arterial pressure (SAP) was maintained for 10 minutes, L-NMA was administered (20 mg/kg in 5 ml of PBS i.v. over 1 min.). In most experiments, L-arginine (400 mg/kg in 20 mi PBS) was administered ten minutes later by i.v. infusion over 2 minutes. In control experiments, dogs without prior exposure to endotoxin received L-NMA alone. To simulate the hypotension observed in dogs receiving endotoxin, one group of dogs received a continuous i.v. infusion of nitroglycerin (2 mg/ml) at a rate adjusted to maintain the SAP at 60-70 mm Hg. Nitroglycerin-treated dogs then received L-NMA (20 mg/kg) and 20 minutes later L-arginine was administered […].

rabbit aortic rings = assay: ACh-induced relaxation of isolated rabbit aortic rings; details: for effect on ACh-induced vasorelaxation: NE-preconstricted rabbit aorta, FIG. 11
From the text: FIG. 9b compares concentration-response relationships for the same set of mono- and disubstituted arginine analogs as FIG. 9a, plus an additional dimethyl analog with the two methyl groups on different guanidino nitrogens. The test is for inhibition of ACh-induced vasorelaxation in isolated rabbit aortic rings. The points plotted represent means±S.E. of the maximum responses to ACh observed in the presence of the indicated concentrations of analogs (n=4).
as §1
FIG. 11 contains representative physiograph tracings which depict ACh-induced relaxation of NE-preconstricted rings prepared from rabbit aorta (upper panel) and human internal mammary artery (lower panel).

[4] = system: vascular EDRF/NO synthesis; details: Sakuma et al., cited from earlier work
[5] = system: guinea pig pulmonary artery rings; assay: Relaxation of preconstricted guinea pig pulmonary artery rings
control dogs = assay: L-NMA in control dogs (Example 4); assay type: in vivo, dog; details: for increase in blood pressure (SAP) by L-NMA: control dogs, L-NMA 20 mg/kg, n=4
Method: as §2, §3, §4

For `CNC(=N)NCCC[C@H](N)C(=O)O` [NMMA, N^G -methyl-L-arginine], the “inhibition of EDRF/NO in vascular preparation” value [1] was “arginine reversible inhibitor of EDRF/NO”, the “effect on coronary flow (vasodilation)” value [2] was “attenuated” and the “effect on EDRF/NO (nitrite) release” value [2] was “inhibition”. For the same compound, the “effect on EDRF/NO (nitrite) release” value ([2]; listed as L-NMA) was “inhibits EDRF/NO release”, the “blood pressure after NMMA” value ([3]; FIG. 7a, TNF-treated) was 115 mm and the “increase in blood pressure by NMMA” value ([3]; FIG. 7a, TNF-treated) was 79 mm. The “time to pressor effect” value ([3]; after TNF) was ≤ 2 min, the “pressor response in TNF-hypotensive vs normotensive dogs” value ([3]; compared with normotensive dogs) was “much more dramatic in dogs with TNF-induced hypotension than in normotensive dogs” and the “reversal of TNF-associated hypotension” value ([3]; dogs, TNF 10 mcg/kg) was “blocked; also recorded: reverse the hypotension”. For the same compound, the “anti-hypotensive effect in endotoxemic dog” value (endotoxin-treated dogs; 20 mg/kg L-NMA) was “rapid and strong anti-hypotensive effect; also recorded: restores blood pressure to normal or near normal values”, the “increase in SAP by L-NMA” value (endotoxin-treated dogs; FIG. 24, 20 mg/kg, within 10 min) was 73 mm Hg and the “duration of maintained blood pressure, first dose” value (endotoxin-treated dogs; FIG. 24, first dose of L-NMA) was 48 min. For the same compound, the “SAP maintained after second dose” value (endotoxin-treated dogs; FIG. 24, for 2 hrs) was “greater than 100 mm Hg”, the “time to normalization / reversal of hypotension” value (endotoxin-treated dogs; L-NMA 20 mg/kg i.v.) was ≤ 1.5 min and the “increase in SVR by L-NMA” value (endotoxin-treated dogs; L-NMA, endotoxin-treated) was 2060±338 dynes-sec/cm^5. For the same compound, the “Cardiac Output” value (endotoxin-treated dogs) was 2.03 ± 0.32 L/min, the “Heart Rate” value (endotoxin-treated dogs) was 123.3 ± 4.8 beats/min and the Systemic Arterial Pressure (endotoxin-treated dogs) was 107 ± 9.6 mmHg. For the same compound, the “Systemic Vascular Resistance” value (endotoxin-treated dogs) was 4462 ± 552 dynes-sec/cm^5, the “duration of normal blood pressure with additional dose” value (endotoxin-treated dogs; additional dose of L-NMA 20 mg/kg) was “at least 2 hours” and the “increase in SAP by L-NMA” value (endotoxin-treated dogs; endotoxemic dogs, L-NMA 20 mg/kg, n=4) was 47.8±6.8 mmHg. For the same compound, the “HR and CO after L-NMA” value (endotoxin-treated dogs; endotoxin-treated) was “unchanged”, the “pressor effect of doses greater than 20 mg/kg” value (endotoxin-treated dogs; limited dose response studies, versus 20 mg/kg) was “do not have a significantly greater pressor effect” and the “duration of normal blood pressure after single dose” value (endotoxin-treated dogs; single i.v. dose L-NMA 20 mg/kg) was 30 to 60 min. The “effect on ACh-induced vasorelaxation” value (rabbit aortic rings) was “attenuate ACh-induced vasorelaxation”, the “inhibition of EDRF/NO in vascular preparation” value (rabbit aortic rings; rabbit aorta, NMMA 100 μM) was “arginine reversible inhibitor of EDRF/NO” and the “inhibition of vascular EDRF/NO synthesis” value ([4]; induced by acetylcholine and histamine) was “inhibit vascular EDRF/NO synthesis”. The “effect on vasodilatation by ACh, LTD4 and HIST” value ([5]; endothelium-dependent vasodilators) was “blocks endothelium-dependent relaxation; also recorded: blocks the action of ACh, LTD4 and HIST”, the “inhibition of EDRF/NO synthesis” value ([5]; guinea pig pulmonary artery rings, 1 μM NE, ACh) was “served as inhibitors of EDRF/NO synthesis” and the “inhibition of EDRF/NO in vascular preparation” value ([5]; guinea pig pulmonary artery, NMMA 100 μM) was “arginine reversible inhibitor of EDRF/NO”. The “effect on vasodilatation by SNP” value ([5]; sodium nitroprusside, endothelium-independent) was “does not inhibit”, the “Cardiac Output” value (control dogs; Table 2, control dogs (n = 4)) was 2.12 ± 0.26 L/min and the “Heart Rate” value (control dogs; Table 2, control dogs (n = 4)) was 82.5 ± 6.1 beats/min. For the same compound, the “Systemic Arterial Pressure” value (control dogs; Table 2, control dogs (n = 4)) was 153.8 ± 11.4 mmHg, the “Systemic Vascular Resistance” value (control dogs; Table 2, control dogs (n = 4)) was 5967 ± 523 dynes-sec/cm^5 and the “increase in blood pressure (SAP) by L-NMA” value (control dogs; listed as L-NMA) was 24.8±2.7 mmHg. The “increase in blood pressure (SAP) by L-NMA” value (control dogs; listed as N^G -methyl-L-arginine) was 24.8±4.7 mmHg, the “increase in SVR” value (control dogs; other two control dogs) was “about 1400 dynes-sec/cm^5” and the “decrease in cardiac output” value (control dogs; two of four control dogs) was > 1.5 L/min. For the same compound, the “increase in SVR” value (control dogs; two of four control dogs with marked decrease of cardiac output) was ≥ 3500 dynes-sec/cm^5.
For `N=C(N)NCCC[C@H](N)C(=O)O` [L-arginine, reference compound], the “effect on coronary flow (vasodilation)” value [2] was “restored”, the “effect on EDRF/NO (nitrite) release” value [2] was “restoration” and the “blood pressure after L-arginine” value ([3]; FIG. 7a, after TNF and NMMA) was 37 mmHg. For the same compound, the “effect of L-arginine on NMMA pressor effect (words)” value [3] was “antagonized; also recorded: completely reversed; also recorded: rapid decrease of blood pressure”, the “effect of L-arginine on NMMA pressor effect (words)” value ([3]; listed as arginine) was “reversed” and the “effect of L-arginine on L-NMA effect” value (endotoxin-treated dogs; 400 mg/kg L-arginine) was “reversed the effect of L-NMA and restored the endotoxin-induced hypotension”. The “blood pressure after L-arginine” value (endotoxin-treated dogs; 2 hours after L-NMA dosing, decline) was < 45 mm Hg, the “blood pressure after L-arginine” value (endotoxin-treated dogs; FIG. 24, L-arginine) was 43 mm Hg and the “change in SAP after L-arginine” value (endotoxin-treated dogs; FIG. 24, L-arginine) was -77 mm Hg. For the same compound, the “Cardiac Output” value (endotoxin-treated dogs) was 2.31 ± 0.43 L/min, the “Heart Rate” value (endotoxin-treated dogs) was 116.7 ± 18.8 beats/min and the Systemic Arterial Pressure (endotoxin-treated dogs) was 52.7 ± 8.8 mmHg. For the same compound, the “Systemic Vascular Resistance” value (endotoxin-treated dogs) was 1851 ± 171 dynes-sec/cm^5, the “effect on ACh-induced vasorelaxation” value (rabbit aortic rings) was “restores relaxation” and the “restoration of EDRF/NO synthesis” value ([4]; excess L-arginine after L-NMA) was “restored”. The “effect on relaxation in the presence of NMMA” value ([5]; excess L-arginine) was “restored relaxation in the presence of NMMA” and the “effect of L-arginine on pressor effect of L-NMA” value (control dogs; 400 mg/kg) was “fully reversed the pressor effect of L-NMA”.
